Reference: ChEMBL document CHEMBL1201862, “PubChem BioAssay data set” (2004)
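48-hour exposure; five concentrations; linearly interpolated endpoints. Abbreviation: GI50, concentration required for 50% inhibition of growth.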 Activity calls are given as the source filed them. Cut-off read from the data, not from the text of the source: active = GI50 up to about 1.1 µM and inactive = higher.

Legend:
Assay in all cases: NCI-60 cell line screen, 48 h
SR = tested on: SR
NCI-H460 = tested on: NCI-H460
DMS-273 = tested on: DMS-273
OVCAR-3 = tested on: OVCAR-3
RXF 631 = tested on: RXF 631
CCRF-CEM = tested on: CCRF-CEM
TK-10 = tested on: TK-10
XF498 = tested on: XF498
COLO 205 = tested on: COLO 205
SF-295 = tested on: SF-295
RPMI-8226 = tested on: RPMI-8226
SK-MEL-5 = tested on: SK-MEL-5
SW-620 = tested on: SW-620
SF-539 = tested on: SF-539
KM-20L2 = tested on: KM-20L2
A549 = tested on: A549
HOP-62 = tested on: HOP-62
A498 = tested on: A498
OVCAR-5 = tested on: OVCAR-5
UACC-62 = tested on: UACC-62
LXFL 529 = tested on: LXFL 529
K562 = tested on: K562
HCT-116 = tested on: HCT-116
HL-60 = tested on: HL-60
EKVX = tested on: EKVX
SF-268 = tested on: SF-268
OVCAR-4 = tested on: OVCAR-4
LOX IMVI = tested on: LOX IMVI
CAKI-1 = tested on: CAKI-1
SK-MEL-28 = tested on: SK-MEL-28
DMS-114 = tested on: DMS-114
HCC 2998 = tested on: HCC 2998
SNB-75 = tested on: SNB-75
MOLT-4 = tested on: MOLT-4
SN12C = tested on: SN12C
HOP-18 = tested on: HOP-18
SK-OV-3 = tested on: SK-OV-3
UO-31 = tested on: UO-31
KM12 = tested on: KM12
DLD-1 = tested on: DLD-1
UACC-257 = tested on: UACC-257
HT-29 = tested on: HT-29
OVCAR-8 = tested on: OVCAR-8
SK-MEL-2 = tested on: SK-MEL-2
M14 = tested on: M14
NCI-H23 = tested on: NCI-H23
NCI-H226 = tested on: NCI-H226
NCI-H522 = tested on: NCI-H522
ACHN = tested on: ACHN
IGROV-1 = tested on: IGROV-1
SNB-19 = tested on: SNB-19
786-0 = tested on: 786-0
M19-MEL = tested on: M19-MEL
Malme-3M = tested on: Malme-3M
U-251 = tested on: U-251
HCT-15 = tested on: HCT-15
SNB-78 = tested on: SNB-78

With COc1ccc2c(c1)[n+]([O-])c(C(=O)C/C(=N/OCCCc1ccccc1)C(=O)NC13CC4CC(CC(C4)C1)C3)c(C)[n+]2[O-] the GI50 (SR) was > 100 µM (inactive), the GI50 (NCI-H460) was > 100 µM (inactive) and the GI50 (DMS-273) was > 100 µM (inactive). The GI50 (OVCAR-3) was > 100 µM (inactive), the GI50 (RXF 631) was > 100 µM (inactive) and the GI50 (CCRF-CEM) was 54.8 µM (inactive). For the same compound, the GI50 (TK-10) was > 100 µM (inactive), the GI50 (XF498) was > 100 µM (inactive) and the GI50 (COLO 205) was > 100 µM (inactive). The GI50 (SF-295) was > 100 µM (inactive), the GI50 (RPMI-8226) was > 100 µM (inactive) and the GI50 (SK-MEL-5) was > 100 µM (inactive). For the same compound, the GI50 (SW-620) was > 100 µM (inactive), the GI50 (SF-539) was > 100 µM (inactive) and the GI50 (KM-20L2) was > 100 µM (inactive). For the same compound, the GI50 (A549) was > 100 µM (inactive), the GI50 (HOP-62) was > 100 µM (inactive) and the GI50 (A498) was > 100 µM (inactive). The GI50 (OVCAR-5) was > 100 µM (inactive), the GI50 (UACC-62) was > 100 µM (inactive) and the GI50 (LXFL 529) was > 100 µM (inactive). The GI50 (K562) was 82.8 µM (inactive), the GI50 (HCT-116) was > 100 µM (inactive) and the GI50 (HL-60) was > 100 µM (inactive). The GI50 (EKVX) was > 100 µM (inactive), the GI50 (SF-268) was > 100 µM (inactive) and the GI50 (OVCAR-4) was > 100 µM (inactive). The GI50 (LOX IMVI) was > 100 µM (inactive), the GI50 (CAKI-1) was > 100 µM (inactive) and the GI50 (SK-MEL-28) was > 100 µM (inactive). For the same compound, the GI50 (DMS-114) was > 100 µM (inactive), the GI50 (HCC 2998) was > 100 µM (inactive) and the GI50 (SNB-75) was > 100 µM (inactive). The GI50 (MOLT-4) was > 100 µM (inactive), the GI50 (SN12C) was > 100 µM (inactive) and the GI50 (HOP-18) was > 100 µM (inactive). The GI50 (SK-OV-3) was > 100 µM (inactive), the GI50 (UO-31) was > 100 µM (inactive) and the GI50 (KM12) was > 100 µM (inactive). The GI50 (DLD-1) was > 100 µM (inactive), the GI50 (UACC-257) was > 100 µM (inactive) and the GI50 (HT-29) was > 100 µM (inactive). The GI50 (OVCAR-8) was > 100 µM (inactive), the GI50 (SK-MEL-2) was > 100 µM (inactive) and the GI50 (M14) was > 100 µM (inactive). The GI50 (NCI-H23) was > 100 µM (inactive), the GI50 (NCI-H226) was > 100 µM (inactive) and the GI50 (NCI-H522) was > 100 µM (inactive). The GI50 (ACHN) was > 100 µM (inactive), the GI50 (IGROV-1) was > 100 µM (inactive) and the GI50 (SNB-19) was > 100 µM (inactive). The GI50 (786-0) was > 100 µM (inactive), the GI50 (M19-MEL) was > 100 µM (inactive) and the GI50 (Malme-3M) was > 100 µM (inactive). The GI50 (U-251) was > 100 µM (inactive), the GI50 (HCT-15) was > 100 µM and the GI50 (SNB-78) was > 100 µM (inactive).
